Reference: patent US11666519B2, “Personal care compositions with cystine” (Conopco, Inc., priority 2016, dated 2023)

Tests used:
[1] = Solubility of L-cystine neutralized with fatty acids, HPLC (Example 5); conditions: for Solubility ppm cystine: excess L-cystine in NaOH neutralized with the named acid, equilibrated at least 72 hours, filtered, HPLC, 3 replicas; for pH: pH of the cystine solution neutralized with the named acid
Description: Solubility of cystine was determined in the presence of alternative fatty acids. […] The precipitate upon neutralization was equilibrated with saturated solution for at least 72 hours. The solutions were then filtered through 0.45 micrometer PTFE or nylon (for C12) syringe filter and analysed on HPLC for cystine concentration.

[2] = Description: The compositional examples are in the table 3 below. The samples in table 3 were prepared by process C in table 1.
The results in Table 3 illustrate that other ingredients can be added to the inventive compositions, as long as lamellar bilayer liquid crystal or liquid gel structure remains intact.

[3] = cited from earlier work
[4] = remark: listed apart in the source
Description: Additional samples with decreasing concentration of cystine were prepared to find the solubility limit for cystine in acid soap mixture. Samples in table 2 were prepared by Process A in table 1.
The samples were evaluated under microscope on the hot plate at 80° C.

[5] = Microscopy of cystine crystals recrystallized from high pH solution in hystric acid/KOH acid soap mixtures (Example 1); assay type: physicochemical
Description: The size of crystals can be estimated by microscopy.
The soap/acid emulsions were prepared using hystric acid (55% palmitic acid/45% stearic acid) by melting the hystric acid at 75° C. and adding this melted acid to aqueous phase consisting of KOH. […] Solubilized cystine in high pH solution was then added to the acid/soap mixture as high pH solution. Depending on the procedure of addition, differences in final formulations have been achieved.
Formula A was prepared by dissolving the cystine in hot KOH solution. Melted hystric acid was then added to this hot (75° C.) aqueous solution of cystine, mixed and let cool down to room temperature while mixing. Formula B was prepared by adding the melted hystric acid to hot KOH solution, and adding the high pH solution of cystine while mixing all ingredients at 75° C. Formula C was prepared by adding the melted hystric acid to hot KOH solution, creating thus soap, cooling the soap to 50° C. and then adding the high pH solution of cystine The resulting acid soap mixtures were observed under microscope for the formation of cystine crystals. […] Addition of cystine solution to acid soap mixture at 50-60° C. is preferred as only small particles are formed. At this temperature the majority of acid soap exists in lamellar liquid crystal or lamellar gel with vary narrow aqueous layer creating a restrictive environment for cystine crystal growth. […]

| solubility of cystine, minimal concentration [2] | solubility of cystine in the hystric acid acid/soap media [4] | average particle size of cystine ([5]; added from high pH solution to fatty acid-soap lamellar liquid crystal or lamellar gel) | cystine crystal size ([5]; cystine added at 75 C-80° C. when in the form of oil-in-water emulsion) | Compound | Solubility ppm cystine [1] [ppm] | pH [1] | natural solubility of cystine [3] [ppm] |
| --- | --- | --- | --- | --- | --- | --- | --- |
| – | – | – | – | CCCCCCCCCCCC(=O)O [Dodecanoic (C12) with KOH, Dodecanoic] | 490.6 | 7.6 | – |
| – | – | – | – | CCCCCCCCCCCC(=O)O [Dodecanoic (C12) with NaOH, Dodecanoic] | 575 | 7.6 | – |
| – | – | – | – | O=C(O)/C=C\C(=O)O [Maleic] | 181.6 | 6.6 | – |
| – | – | – | – | CCCCCCCC/C=C\CCCCCCCC(=O)O [Oleic acid (C18:1), Oleic acid] | 246.8 | 7.3 | – |
| greater than 600 ppm | greater than 700 ppm | less than 20 micrometers | greater than 20 micrometers | N[C@@H](CSSC[C@H](N)C(=O)O)C(=O)O [cystine] | – | – | 100 |
